Experimental findings from patent US20080305534A1, “Novel Glycerol Dehydrogenase, Gene Therefor, and Method of Utilizing the Same” (priority 2004, published 2008) are described below.

B1: RCG: glycerol dehydrogenase derived from Cellulomonas sp. strain KNK0102, amino acid sequence SEQ ID NO: 1 (protein, listed as Cellulomonas sp.)
chain: MSEVPVRTLISPLRYVQARGALTRLGEFVRPIGTKPLLVADDVVWGIVQDTVAVSFQEQDLPRHRTGFGTYATAAEVDRLAREIDELGADVIVGIGGGSTIDAVKAAGHLRGIRWVSVPTVASTDAPCSALSVIYTEDGAFEEYRFFPHNPDLVLVDTGLVANAPVKFLVAGVGDALATWIEARAVAEANASTMAGGLPLVTGTALAQLSWDILWENALPAIDAVKNHLVTPAVEKVVEANTLLSGLGFESGGLAAAHAIHNGLTAAPQTHGLTHGQKVNIGSVTQLVLEGAPTEEIEEFVRFTTRVGLPNTLTEIGLTADDVHDLTRVAEAATAEGETIHAMPFPVRVPELVDALRSIEGFSRRVRAEAGLPEPVKHTAH

Test system in the first data set: not listed separately
The data set is described as follows: Optimum pH of RCG for reduction (activity to reduce dihydroxyacetone). The data set is classed as biochemical. As to conditions: 10 mM dihydroxyacetone, 0.167 mM NADH, 30° C., pH 4 to pH 9. As to the method: In order to study the optimum pH of RCG for reduction, the activity to reduce dihydroxyacetone at pH 4 to pH 9 was determined. The enzyme activity was determined by adding 10 mM of the substrate dihydroxyacetone, 0.167 mM of coenzyme NADH, 50 mM of KCl, 50 mM of NH4Cl, and the enzyme solution to a buffer to react at 30° C. for 3 min. followed by the measurement of a decrease in absorbance at […]. As buffers, 100 mM acetic acid buffers (pH4.0 to pH 6.0), 100 mM phosphate buffers (pH 6.0 to pH 8.0), and 100 mM Tris-HCl buffers (pH 8.0 to 9.0) were used to measure the activity at pH 4 to pH 9.
B1: the “optimum pH for reduction” value came to 6.0.

Test system in a further data set: not listed separately
Briefly: Action of RCG: stereoselective reduction of 1-chloro-3-hydroxyacetone. Format: biochemical. The following applies: reduction of 1-chloro-3-hydroxyacetone using NADH as a coenzyme. The protocol: Furthermore, optical purity of the resulting 3-chloro-1,2-propanediol was determined by high performance liquid chromatography after tosylation.
In the case of B1, the “optical purity of (S)-3-chloro-1,2-propanediol formed” value was 99.3 % e.e.

Test system in a further data set: not listed separately
Briefly: Optimum pH of RCG for oxidation (activity to oxidize glycerol). The data set is classed as biochemical. As to conditions: 0.1 M glycerol, 2 mM NAD+, 30° C., pH 6 to pH 11. As to the method:
In order to study the optimum pH of RCG for oxidation, the activity to oxidize glycerol at pH6 to pH 11 was determined. The enzyme activity was determined by adding 0.1 M of the substrate glycerol, 2 mM of coenzyme NAD^+, 50 mM of KCl, 50 mM of NH4Cl, and the enzyme solution to a buffer to react at 30° C. for 3 min. followed by the measurement of an increase in absorbance at […]. As buffers, 100 mM phosphate buffers (pH 6.0 to pH 8.0), 100 mM Tris-HCl buffers (pH 8.0 to 9.0), and 100 mM carbonic acid buffers (pH 9.0 to pH 11.0) were used to measure the activity at pH 6 to pH 11.
B1: the “optimum pH for oxidation” value is 9.0.

Test system in the next data set: not given
Experiment: not given
Conditions: not given
Format: biochemical. The protocol:
Herein, the expression “having resistance to 1-chloro-3-hydroxyacetone” means that when 1-chloro-3-hydroxyacetone is added to a solution containing the polypeptide (the enzyme) of the present invention at the final concentration of 0.25% and the mixture is incubated at 30° C. for 20 hrs. followed by the determination of the activity to reduce 1-chloro-3-hydroxyacetone under the conditions described above, the resulting activity is 80% or more, preferably 85% or more, more preferably 90% or more of the activity determined without the pretreatment.
Likewise, the expression “having resistance to 3-chloro-1,2-propanediol” means that when the activity to reduce 1-chloro-3-hydroxyacetone is determined after incubation at 30° C. for 20 hrs. in the presence of 1% of 3-chloro-1,2-propanediol, the resulting activity is 80% or more, preferably 90% or more, more preferably 95% or more of the activity determined without the pretreatment.
In order to study the stability of RCG to 1-chloro-3-hydroxyacetone and to 3-chloro-1,2-propanediol, 1-chloro-3-hydroxyacetone was added at the final concentration of 0.25% to the enzyme solution and incubated at 30° C. followed by the measurement of the activity to reduce 1-chloro-3-hydroxyacetone by using the above enzyme solution. […]
Turning to B1, the “stability to 1-chloro-3-hydroxyacetone” value is “very stable” and the “stability to 3-chloro-1,2-propanediol” value was “very stable”.

The subject of a further data set is RCG. The data set is described as follows: Substrate specificity of RCG (oxidation activity with NAD+). Format: biochemical, Cellulomonas sp. strain KNK0102. As to conditions: pH 8. The protocol:
Oxidation activity was determined by adding 2 mM of coenzyme NAD^+, 10 mM of a compound shown in Table 2, and the enzyme solution to a 100 mM phosphate buffer (pH 8.0) to react at 30° C. for 3 min. followed by the measurement of an increase in absorbance at the wavelength of […]. In Table 2, relative activities are summarized, wherein the activity for glycerol is 100.
For the molecule `OCCCCO` [1,4-butanediol], the Relative activity came to 1%.

With `OCCO` [ethylene glycol], the Relative activity came to 8%.

The same data set, now with this note: substrate 10 mM, 2 mM NAD+, 100 mM phosphate buffer pH 8.0, 30° C., 3 min; activity for glycerol is 100.
Take 1-amino-2-propanol: the Relative activity is 12%.

Take 2-butanol: the Relative activity is reported as 0%.

Consider `OCCC(O)CO` (stereo not shown) [1,2,4-butanetriol], for which the Relative activity is given as 21%.

With `CCC(O)CO` (stereo not shown) [1,2-butanediol], the Relative activity worked out at 129%.

Take `CCCCC(O)CO` (stereo not shown) [1,2-hexanediol]: the Relative activity worked out at 26%.

As to `CCCC(O)CO` (stereo not shown) [1,2-pentanediol], the Relative activity is listed as 153%.

In the case of `CC(O)CO` (stereo not shown) [1,2-propanediol], the Relative activity was 142%.

Turning to `CC(O)CCO` (stereo not shown) [1,3-butanediol], the Relative activity is given as 3%.

On to `OC(CCl)CCl` [1,3-dichloro-2-propanol], for which the Relative activity was determined as 0%.

In the case of `OCCCO` [1,3-propanediol], the Relative activity came out at 1%.

On to `CC(O)CCCO` (stereo not shown) [1,4-pentanediol], for which the Relative activity was found to be 0%.

Turning to `CC(O)C(C)O` (stereo not shown) [2,3-butanediol], the Relative activity amounted to 64%.

As to `OCC(O)CBr` (stereo not shown) [3-bromo-1,2-propanediol], the Relative activity amounted to 58%.

On to `OCC(O)CCl` (stereo not shown) [3-chloro-1,2-propanediol], for which the Relative activity is recorded as 63%.

Consider `OCC(O)CS` (stereo not shown) [3-mercapto-1,2-propanediol], for which the Relative activity came to 129%.

Regarding `COCC(O)CO` (stereo not shown) [3-methoxy-1,2-propanediol], the Relative activity is given as 39%.

With `CSCC(O)CO` (stereo not shown) [3-methylthio-1,2-propanediol], the Relative activity is 120%.

For the molecule `OCC(O)COc1ccccc1` (stereo not shown) [3-phenoxy-1,2-propanediol], the Relative activity was 9%.

Turning to `CCO` [ethanol], the Relative activity is on record as 0%.

Consider `OCC(O)CO` [glycerol], for which the Relative activity stood at 100%.

As for `CC(C)O` [isopropanol], the Relative activity turned out to be 0%.

Turning to `CO` [methanol], the Relative activity was 0%.

For the molecule `CCCO` [propanol], the Relative activity came to 0%.

For the molecule butanol, the Relative activity is given as 0%.
